pIC50: −log10 of the molar value. Non-standard residues stand in square brackets, D forms with d. Residues, ends and D or L forms follow the SMILES beside them. *: point of attachment. Palmitoyl = CCCCCCCCCCCCCCCC(=O)*
Legend:
Assay type in all cases: cell-based
[1] = tested on: A549 human lung cancer cells; experiment: Cell Titer Blue in vitro cell viability assay, A549; details: 72 h, A549 (DMEM), 3 days at 37° C.
Experimental: (§1) FIG. 13: Dose Response curve for MBC0179 with A549 cells. Compound MBC0179 was incubated with A549 human lung cancer cells at the indicated concentrations for 3 days at 37° C. prior to Cell Titer Blue fluorescence-based cell viability assay. Normalized cell viability data, expressed as a percentage, are averaged from three biological replicates and standard error represented by error bars for each averaged data point (empty squares). The compound concentrations are represented on log scale on the x-axis in μM units. Data were analyzed using free software called DrFit, as described in Nature Scientific Reports, Article number: 14701, (2015). […]
(§2) The Cell Titer Blue reagent (available from Promega, Inc.) is a buffered solution containing resazurin, a compound that is converted to resorufin, a detectable fluorescent product, by metabolically active cells. The fluorescence intensity of resorufin product therefore serves as a proportional measure of the number of viable cells, permitting changes in cell viability within cancer or other cell lines to be monitored in response to the addition of cytotoxic or cytostatic agents. […] Metastases to the lungs may be conveniently quantified by a well-established clonogenic assay. […]

[2] = tested on: hTERT-HME1 healthy human breast epithelial cells; experiment: Cell Titer Blue in vitro cell viability assay, hTERT-HME1; details: 72 h, hTERT-HME1 (MEGM), 3 days at 37° C.
Experimental: as §1, with “6:” for “13:”, “hTERT-HME1 cells in MEGM Media.” for “A549 cells.”, “[…] healthy” for “A549”, “breast epithelial” for “lung cancer”, “cells in growth factor-rich MEGM media” for “cells”
as §2

[3] = tested on: MCF7, estrogen receptor positive, human breast cancer cells; experiment: Cell Titer Blue in vitro cell viability assay, MCF7; details: 72 h, MCF7 (DMEM), 3 days at 37° C.
Experimental: as §1, with “FIG. 8: Dose Response” for “FIG. 13: Dose Response”, “MBC0179 with MCF7 cells. Compound” for “MBC0179 with A549 cells. Compound”, “incubated with MCF7, estrogen receptor positive, human breast” for “incubated with A549 human lung”, “positive, human breast cancer cells” for “A549 human lung cancer cells”
as §2

pIC50 [1]: 4.98 | pIC50 [3]: 3.45
SMILES: CCCCCCCCCCCCCCCC(=O)N[C@H](Cc1c[nH]cn1)C(=O)N[C@@H](C(=O)OCC)C(C)C [Compound 5, N-[N-(1-oxohexadecyl)-D-histidyl]-D-valine ethyl ester] (Palmitoyl-[dH]-[dV]-OEt)
pIC50 [2]: 3.57
